In brackets after ≈: the same amount, converted by molar mass.
Assays:
Dunaliella sp. = assay: Microalgal PAM fluorometry assay, inhibition of ∆F/Fm′ (24 h, 96-well plate); type: cell-based; conditions: 24 h; for IC20: read-out: IC20 parent (inhibition of ∆F/Fm′ by 20%); for IC50: read-out: IC50 parent (inhibition of ∆F/Fm′ by 50%); for IC10 parent (inhibition of ∆F/Fm′ by 10%): Dunaliella sp., pure compound
Excerpt: (§1) Microalgae play a critical role in the marine food web and have been used in a number of sensitive assays for the assessment of toxicity of both herbicides and their transformation products[13],[16],[60]. High throughput 96 well plate designs allow for increased replication and a wide range of concentrations especially when paired with pulse amplitude modulation (PAM) fluorometry[50],[61]. PAM fluorometry measures chlorophyll fluorescence and can be used to calculate inhibitions of effective quantum yield ∆F/Fm′, which is proportional to reduced photosynthetic efficiency[62] and growth in microalgae[63] and can be plotted against toxicant concentrations to derive concentrations that inhibit ∆F/Fm′ by 10, 20 and 50% (IC10, IC20 and IC50). In the present study the green algae (Dunaliella sp.) and coral symbiont (Symbiodinium sp.) were exposed to herbicides and aged herbicide solutions for 24 h in a 96-well plate format. A Maxi-Imaging-PAM (I-PAM) (Walz, GmbH Germany) was used to measure inhibition of ∆F/Fm′ using settings provided previously[36] and below.
(§2) Symbiodinium cells were isolated from coral by air blasting branches of Acropora tenuis colonies collected (collected under the permit G10-33440.1) at 2–5 m depth in Nelly Bay, Magnetic Island, GBR[36]. Symbiodinium cells were inoculated into sterile IMK growing media, the culture purified, DNA extracted, and Clade C1 identified as published previously[64],[65]. Cultures were maintained at 26 °C, 60 µE PAR, 14:10 light:dark photoperiod inside environmental chambers (Steridium e500). The Dunaliella sp. (CS-353) (Chlorophyceae) was obtained from the CSIRO Collection of Living Microalgae (CCLM). The algae was subcultured and grown in F2 media. For the toxicology assays, an exponentially growing culture was employed[63] and density adjusted by hemocytometry under 10× magnification. Day 7 sub-cultures were used throughout the experiment.
(§3) Herbicide solutions were delivered into each treatment plate using a Perkin Elmer Janus liquid handling system. Each well of the black 96-well plates (Perkin Elmer) received 100 µl herbicide solution as well as 100 µl of algal suspension (added via multi-channel pipette) and the solution was gently mixed. […] Each plate included a 3 µg l^−1 positive diuron control (n = 4) to confirm consistent sensitivities among the replicate algal subcultures. Treatments positions were randomised across the plates in duplicate[50],[61],[66]. Symbiodinium culture plates were incubated over a 12:12 h light:dark cycle at 26 °C and 60–70 µmol photons m^−2 s^−1 and Dunaliella sp. Plates incubated at: 26 °C and 130 µmol photons m^−2 s^−1. Microalgae were exposed for 24 h prior to PAM measurements. Samples were subjected to the 50 µmol photons m^−2 s^−1 actinic light for 1 min prior to measurement in the Maxi-IPAM (Actinic light = 1, ML = 10, ML frequency = 8, gain = 2 and damping = 1).
(§4) The model was constrained by applying a lower limit of 0% inhibition and all curves were tested for normality of the residuals and a replicate test was applied to assess the goodness of fit[36]. The probability that ICX values generated by the logistic curves were statistically different between parent and aged herbicide solutions was tested by applying the F test in Graph Pad Prism v6. ICXs were considered different when p < 0.05. Where inhibition data could not be fitted to logistic curves, one-way analysis of variance (ANOVA) was performed to identify treatments which caused significant (p < 0.05) inhibition comparison with control treatments (NCSS v9, Utah, USA). The larval prawn experimental data was arcsine square root transformed prior to statistical analysis.

Symbiodinium sp. = assay: as above; type: cell-based; conditions: 24 h; for IC20: read-out: IC20 parent (inhibition of ∆F/Fm′ by 20%); for IC50: read-out: IC50 parent (inhibition of ∆F/Fm′ by 50%); for IC10 parent (inhibition of ∆F/Fm′ by 10%): Symbiodinium sp., pure compound
Excerpt: as §1, §2, §3, §4

[1] = tested on: prawn (Penaeus monodon) larvae; assay: Prawn larvae assay, metamorphosis of nauplii into protozoea (24 h static); type: in vivo; conditions: 24 h; for LOEC, prawn larval metamorphosis / NOEC, prawn larval metamorphosis: vs solvent control, ANOVA p < 0.05, aged solutions as concentration of parent herbicide; for Effect on prawn larval metamorphosis (in words): concentration range tested
Experimental: The giant tiger prawn (Penaeus monodon) can be found throughout the tropical Indo-Pacific region and can be obtained from aquaculture facilities and has a well-described life cycle. The aim of the larval prawn assay was to determine whether the herbicides and transformation products inhibit early naupliar development. Prawn eggs hatch into their first larval stage (nauplii), typically 12–15 h after spawning. During development the nauplii are lecithotrophic, and over the course of the next 36 h, nauplii pass through 6 sub-stages before metamorphosing into protozoae[67],[68].
Freshly hatched nauplii were harvested by light attraction over 30 min, and washed and aerated for 10 min with seawater, and transported to AIMS in Townsville, Queensland. […] The toxicity assays were performed in incubator shakers (set to 30 °C) under very low light and with gentle shaking to prevent individuals adhering to the side of experimental containers.
The larval stock was gently concentrated via reverse-gravity filtration to a higher density before dispensing 8–10 individuals per 20 ml glass scintillation vials. Additional positive control treatments in the form of 4 concentrations of copper II chloride solution (2 to 900 µg l^−1 Cu), were included for test validation. The static assay was terminated after 24 h and 10% seawater formalin was added as a preservative for later microscopy. Metamorphosis was considered successful when nauplii had developed into protozoea.
as §4

[2] = Herbicide degradation in outdoor tanks with coastal seawater and sediment (330 d); type: physicochemical; conditions: for Transformation product concentration: in tank of the parent herbicide, measured or estimated
Excerpt: Photosystem II herbicides/transformation product solutions were produced by adding herbicides to seawater within separate 120 l outdoor fibreglass tanks, in the presence of natural coastal sediments (further details can be found in Mercurio 2016)[36]. […] The tanks used were previously described in Mercurio et al.[8], with treatment water being partially shaded (70%) and exposed to a maximum of 700 µmol photons m^−2s^−1 over the course of the experiment. The application of a natural diurnal light regime and coastal sediment were previously shown to increase the rates of PSII herbicide degradation and represent more natural conditions than those used in standard degradation tests[8],[36]. Evaporation was minimised with loose-fitting clear acrylic lids and the water continuously circulated using Turbelle Nanostream pumps. Prior to every sampling period evaporation losses were replenished with equal volumes of MilliQ water. The average temperature was 25.7 °C with a range of 15.6–36.6 °C over the course of the study. Unfiltered coastal seawater and sediments were collected from the intertidal zone adjacent to the Australian Institute of Marine Science (19°16′S, 147°03′E), Cape Cleveland, QLD. The sediments were prepared one week prior to use by sieving (>2 mm removed) and thorough mixing. Each tank contained 5 kg of sediment. Physical and chemical information on the seawater and sediments used the treatments can be found in SOM Table 1.
The 20 tanks included replicates for control seawater (n = 4) and the PSII herbicides diuron (n = 4), atrazine (n = 3), simazine (n = 3), hexazinone (n = 3), and ametryn (n = 3). Herbicide treatments and replicates were randomized among tanks. The herbicides were purchased from Sigma Aldrich (>95% purity) and were introduced at ~1 mg l^−1 to enable direct chemical and toxicological testing of the herbicide transformation product mixtures without additional concentration steps. […] The same concentration was used in the controls. Sample collection, internal standard addition, and analytical techniques (HPLC-MS/MS using an AB/Sciex API5500Q mass spectrometer equipped with an electrospray interface and coupled to a Shimadzu Prominence HPLC system) were as previously reported[7],[36]. […] Individual replicates were analysed using HPLC/TripleTOF mass spectrometry for possible transformation products as described in Mercurio 2016[36]. Briefly, 0.2 µm-filtered samples were directly injected into an ABSciex API5600+ Triple TOF mass spectrometer (ABSciex, Concord, Ontario, Canada) equipped with an electrospray (TurboV) interface coupled to a Shimadzu Nexera HPLC system (Shimadzu Corp., Kyoto, Japan). Separation was achieved using a 4 micron 50 × 2.0 mm Phenomenex Synergi Fusion RP column (Phenomenex, Torrance, CA) run at 45 °C, and a flow rate of 0.4 mL min^−1 with a linear gradient starting at 8% B for 0.5 minutes, ramped to 100% B in 8 minutes then held at 100% for 2.0 minutes followed by equilibration at 8% B for 2.5 minutes (A = 1% methanol in HPLC grade water, B = 95% methanol in HPLC grade water, both containing 0.1% acetic acid). The mass spectrometer was operated in positive ion SWATH mode. Briefly this mode comprises a TOF scan of 50 millisecond duration followed by small segments of the mass range being transmitted through the quadrupole, fragmented in the collision cell and full TOF mass spectra taken of the transformation products. Data from these experiments was examined using the Masterview software (ABSciex).
Potential transformation products identified using TOF mass spectrometry and other potential transformation products identified from literature were then re-examined by HPLC/ triple quadrupole mass spectrometry using multiple reaction monitoring. Product ions used were as identified from QTOF data or from literature references and parameters such as collision energy optimised by repeated injections of samples for compounds detected. […]

[3] = day 330, seawater with sediment, outdoor tanks

## CN(C)c1nc(=O)n(C2CCCCC2)c(=O)n1C [Hexazinone]
Dunaliella sp.
  IC20: 0.01 µg/mL (≈ 0.0396 µM)
  IC50: 0.038 µg/mL (≈ 0.151 µM)
Symbiodinium sp.
  IC20: 0.012 µg/mL (≈ 0.0476 µM)
  IC50: 0.0457 µg/mL (≈ 0.181 µM)
  IC10 parent (inhibition of ∆F/Fm′ by 10%): 5.3 (4.5–6.7) µg l^−1
[1]
  LOEC, prawn larval metamorphosis: 1026 µg/L
  NOEC, prawn larval metamorphosis: 242 µg/L
[2]; 330 d
  % degradation: 58%
[2]; [3]
  Parent herbicide concentration: 366 µg/L

## CCNc1nc(N)nc(Cl)n1 [Desethyl simazine, desethyl simazine]
[2]; day 330
  Transformation product concentration: 79 µg/L

## CCNc1nc(NC(C)C)nc(SC)n1 [Ametryn]
Dunaliella sp.
  IC20: 0.00123 µg/mL (≈ 0.00541 µM)
  IC50: 0.0034 µg/mL (≈ 0.015 µM)
  IC10 parent (inhibition of ∆F/Fm′ by 10%): 0.70 (0.65–0.74) µg l^−1
Symbiodinium sp.
  IC20: 0.00082 µg/mL (≈ 0.00361 µM)
  IC50: 0.0022 µg/mL (≈ 0.00968 µM)
  IC10 parent (inhibition of ∆F/Fm′ by 10%): 0.47 (0.43–0.51) µg l^−1
[1]
  Effect on prawn larval metamorphosis (in words): did not affect metamorphosis
  LOEC, prawn larval metamorphosis: >517 µg/L
  NOEC, prawn larval metamorphosis: 517 µg/L
[2]; 330 d
  % degradation: 56%
[2]; [3]
  Parent herbicide concentration: 189 µg/L

## CSc1nc(N)nc(NC(C)C)n1 [Ametryn desethyl, ametryn desethyl]
[2]; day 330
  Transformation product concentration: 23 µg/L

## CN(C)C(=O)Nc1ccc(Cl)c(Cl)c1 [Diuron]
Dunaliella sp.
  IC20: 0.00174 µg/mL (≈ 0.00746 µM)
  IC50: 0.0044 µg/mL (≈ 0.0189 µM)
  IC10 parent (inhibition of ∆F/Fm′ by 10%): 1.02 (0.94–1.10) µg l^−1
Symbiodinium sp.
  IC20: 0.00068 µg/mL (≈ 0.00292 µM)
  IC50: 0.0014 µg/mL (≈ 0.00601 µM)
  IC10 parent (inhibition of ∆F/Fm′ by 10%): 0.64 (0.57–0.71) µg l^−1
[1]
  Effect on prawn larval metamorphosis (in words): did not affect metamorphosis
  LOEC, prawn larval metamorphosis: >874 µg/L
  NOEC, prawn larval metamorphosis: 874 µg/L
[1]; listed as diuron
  LOEC, prawn larval metamorphosis: > 874 µg/L
[2]; [3]
  % degradation: 93%
  Parent herbicide concentration: 71 µg/L

## simazine amine
[2]; day 330
  Transformation product concentration: 31 µg/L

## hexazinone hydroxy
[2]; day 330
  Transformation product concentration: 5.4 µg/L

## CCNc1nc(NC(C)C)[nH]c(=O)n1 [Atrazine hydroxy, hydroxy atrazine]
[2]; day 330
  Transformation product concentration: 30 µg/L

## CNC(=O)Nc1ccc(Cl)c(Cl)c1 [DCPMU, 3-(3,4-dichlorophenyl)-1-methylurea]
[2]; day 330
  Transformation product concentration: 236 µg/L

## CCNc1nc(Cl)nc(NC(C)C)n1 [Atrazine]
Dunaliella sp.
  IC20: 0.018 µg/mL (≈ 0.0835 µM)
  IC50: 0.035 µg/mL (≈ 0.162 µM)
  IC10 parent (inhibition of ∆F/Fm′ by 10%): 12 (11–14) µg l^−1
Symbiodinium sp.
  IC20: 0.014 µg/mL (≈ 0.0649 µM)
  IC50: 0.0345 µg/mL (≈ 0.16 µM)
  IC10 parent (inhibition of ∆F/Fm′ by 10%): 8.6 (8.0–9.3) µg l^−1
[1]
  LOEC, prawn larval metamorphosis: 899 µg/L
  NOEC, prawn larval metamorphosis: 197 µg/L
[2]; [3]
  % degradation: 64%
  Parent herbicide concentration: 278 µg/L

## CCNc1nc(NC(C)C)[nH]c(=O)n1 [Ametryn hydroxy, hydroxy ametryn]
[2]; day 330
  Transformation product concentration: 188 µg/L

## CCNc1nc(N)nc(SC)n1 [Ametryn desisopropyl, ametryn desisopropyl]
[2]; day 330
  Transformation product concentration: BDL

## hexazinone oxy
[2]; day 330
  Transformation product concentration: 26 µg/L

## CCNc1nc(Cl)nc(NCC)n1 [Simazine]
Dunaliella sp.
  IC20: 0.017 µg/mL (≈ 0.0843 µM)
  IC50: 0.087 µg/mL (≈ 0.431 µM)
Symbiodinium sp.
  IC20: 0.034 µg/mL (≈ 0.169 µM)
  IC50: 0.084 µg/mL (≈ 0.417 µM)
  IC10 parent (inhibition of ∆F/Fm′ by 10%): 21 (19–23) µg l^−1
[2]; [3]
  % degradation: 63%
  Parent herbicide concentration: 384 µg/L

## NC(=O)Nc1ccc(Cl)c(Cl)c1 [DCPU, 3,4-dichlorophenylurea]
[2]; day 330
  Transformation product concentration: 85 µg/L

## CCNc1nc(O)nc(NCC)n1 [Simazine hydroxy, hydroxy simazine]
[2]; day 330
  Transformation product concentration: 45 µg/L

## CNc1nc(=O)n(C2CCCCC2)c(=O)n1C [Hexazinone desmethyl, hexazinone desmethyl]
[2]; day 330
  Transformation product concentration: 91 µg/L

## [Cl][Cu][Cl] [Copper reference, copper II chloride, reference compound]
[1]
  LOEC, prawn larval metamorphosis: 91 µg/L
  NOEC, prawn larval metamorphosis: 11 µg/L
